Reference: PubChem BioAssay AID2060508 (Molecular Pharmacology Branch, DTP, NCI, 2025)

Tested on: 454973-116-R2-J3-PDC spheroids, viability, % test/control
Assay: Anticancer human tumor 454973-116-R2-J3-PDC patient-derived pancreatic carcinoma cell line growth inhibition [GQUAD]
Conditions: spheroids with HUVEC and MSC; for IC50: curve of first compound; for viability, T/C: stronger effect = lower value
Summary of the method: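 Viability of tumor cells grown as complex spheroids with endothelial and stromal cells, exposed to drug combinations. Top concentration at or near clinical Cmax (else 10 microM), diluted in half-log increments.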

[1] = second compound 0.0316 µM, first compound 0.0316 µM
[2] = second compound 0.0316 µM, first compound 0.1 µM
[3] = second compound 0.0316 µM, first compound 0.316 µM
[4] = second compound 0.0316 µM, first compound 1 µM
[5] = second compound 0.0316 µM, first compound 3.16 µM
[6] = second compound 0.0316 µM, first compound 10 µM
[7] = second compound 0.1 µM, first compound 0.0316 µM
[8] = second compound 0.1 µM, first compound 0.1 µM
[9] = second compound 0.1 µM, first compound 0.316 µM
[10] = second compound 0.1 µM, first compound 1 µM
[11] = second compound 0.1 µM, first compound 3.16 µM
[12] = second compound 0.1 µM, first compound 10 µM
[13] = second compound 0.316 µM, first compound 0.0316 µM
[14] = second compound 0.316 µM, first compound 0.1 µM
[15] = second compound 0.316 µM, first compound 0.316 µM
[16] = second compound 0.316 µM, first compound 1 µM
[17] = second compound 0.316 µM, first compound 3.16 µM
[18] = second compound 0.316 µM, first compound 10 µM
[19] = second compound 1 µM, first compound 0.0316 µM
[20] = second compound 1 µM, first compound 0.1 µM
[21] = second compound 1 µM, first compound 0.316 µM
[22] = second compound 1 µM, first compound 1 µM
[23] = second compound 1 µM, first compound 3.16 µM
[24] = second compound 1 µM, first compound 10 µM
[25] = second compound 3.16 µM, first compound 0.0316 µM
[26] = second compound 3.16 µM, first compound 0.1 µM
[27] = second compound 3.16 µM, first compound 0.316 µM
[28] = second compound 3.16 µM, first compound 1 µM
[29] = second compound 3.16 µM, first compound 3.16 µM
[30] = second compound 3.16 µM, first compound 10 µM
[31] = second compound 10 µM, first compound 0.0316 µM
[32] = second compound 10 µM, first compound 0.1 µM
[33] = second compound 10 µM, first compound 0.316 µM
[34] = second compound 10 µM, first compound 1 µM
[35] = second compound 10 µM, first compound 3.16 µM
[36] = second compound 10 µM, first compound 10 µM
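Note: spheroids exposed to compounds for seven days.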
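Throughout, for viability, T/C: 100% = DMSO vehicle control viability.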

## CC(C)n1c(=O)n(C)c2cnc3cc(F)c(-c4ccc(OCCCN5CCCCC5)nc4)cc3c21 + Cc1[nH]c2ccc(F)cc2c1-c1nc2c3cccnc3c3ncccc3c2[nH]1
Second compound 0.0316 µM
  IC50: > 10 µM
Second compound 0.1 µM
  IC50: > 10 µM
Second compound 0.316 µM
  IC50: > 10 µM
Second compound 1 µM
  IC50: > 10 µM
Second compound 3.16 µM
  IC50: > 10 µM
Second compound 10 µM
  IC50: > 10 µM
[1]
  viability, T/C: 112%
[2]
  viability, T/C: 101%
[3]
  viability, T/C: 105%
[4]
  viability, T/C: 101%
[5]
  viability, T/C: 95.8%
[6]
  viability, T/C: 67.5%
[7]
  viability, T/C: 95.8%
[8]
  viability, T/C: 107%
[9]
  viability, T/C: 109%
[10]
  viability, T/C: 102%
[11]
  viability, T/C: 92.5%
[12]
  viability, T/C: 63.7%
[13]
  viability, T/C: 110%
[14]
  viability, T/C: 99%
[15]
  viability, T/C: 111%
[16]
  viability, T/C: 117%
[17]
  viability, T/C: 83.9%
[18]
  viability, T/C: 65%
[19]
  viability, T/C: 94.8%
[20]
  viability, T/C: 101%
[21]
  viability, T/C: 112%
[22]
  viability, T/C: 93.3%
[23]
  viability, T/C: 85.2%
[24]
  viability, T/C: 61.5%
[25]
  viability, T/C: 89.1%
[26]
  viability, T/C: 101%
[27]
  viability, T/C: 96.8%
[28]
  viability, T/C: 97.5%
[29]
  viability, T/C: 96%
[30]
  viability, T/C: 66%
[31]
  viability, T/C: 101%
[32]
  viability, T/C: 91.9%
[33]
  viability, T/C: 88.3%
[34]
  viability, T/C: 93.7%
[35]
  viability, T/C: 79.9%
[36]
  viability, T/C: 59.7%

## CC1COCCN1c1cc(-c2ccnn2C)c2ccnc(-c3ccn[nH]3)c2n1 (stereo not given) + Cc1[nH]c2ccc(F)cc2c1-c1nc2c3cccnc3c3ncccc3c2[nH]1
Second compound 0.0316 µM
  IC50: 0.162 µM
Second compound 0.1 µM
  IC50: 0.171 µM
Second compound 0.316 µM
  IC50: 0.168 µM
Second compound 1 µM
  IC50: 0.158 µM
Second compound 3.16 µM
  IC50: 0.116 µM
Second compound 10 µM
  IC50: 0.117 µM
[1]
  viability, T/C: 97.4%
[2]
  viability, T/C: 66.8%
[3]
  viability, T/C: 26.6%
[4]
  viability, T/C: 23.2%
[5]
  viability, T/C: 26.3%
[6]
  viability, T/C: 23.6%
[7]
  viability, T/C: 98.1%
[8]
  viability, T/C: 67.1%
[9]
  viability, T/C: 30.6%
[10]
  viability, T/C: 23.3%
[11]
  viability, T/C: 24%
[12]
  viability, T/C: 26.4%
[13]
  viability, T/C: 97.8%
[14]
  viability, T/C: 65.8%
[15]
  viability, T/C: 31%
[16]
  viability, T/C: 20.6%
[17]
  viability, T/C: 23.4%
[18]
  viability, T/C: 21.9%
[19]
  viability, T/C: 87%
[20]
  viability, T/C: 62%
[21]
  viability, T/C: 32.2%
[22]
  viability, T/C: 18.7%
[23]
  viability, T/C: 20.3%
[24]
  viability, T/C: 22.8%
[25]
  viability, T/C: 92.2%
[26]
  viability, T/C: 52.9%
[27]
  viability, T/C: 30.2%
[28]
  viability, T/C: 20.8%
[29]
  viability, T/C: 23.5%
[30]
  viability, T/C: 24.9%
[31]
  viability, T/C: 81.6%
[32]
  viability, T/C: 53.1%
[33]
  viability, T/C: 29.8%
[34]
  viability, T/C: 18.3%
[35]
  viability, T/C: 23.1%
[36]
  viability, T/C: 22.6%

## CC1COCCN1c1cc(C2(S(C)(=N)=O)CC2)nc(-c2ccnc3[nH]ccc23)n1 (stereo not given) + Cc1[nH]c2ccc(F)cc2c1-c1nc2c3cccnc3c3ncccc3c2[nH]1
Second compound 0.0316 µM
  IC50: 5.87 µM
Second compound 0.1 µM
  IC50: 5.36 µM
Second compound 0.316 µM
  IC50: 5.07 µM
Second compound 1 µM
  IC50: 6.49 µM
Second compound 3.16 µM
  IC50: 4.68 µM
Second compound 10 µM
  IC50: 3.49 µM
[1]
  viability, T/C: 101%
[2]
  viability, T/C: 102%
[3]
  viability, T/C: 121%
[4]
  viability, T/C: 96.5%
[5]
  viability, T/C: 76%
[6]
  viability, T/C: 28.1%
[7]
  viability, T/C: 106%
[8]
  viability, T/C: 96.9%
[9]
  viability, T/C: 110%
[10]
  viability, T/C: 107%
[11]
  viability, T/C: 68.7%
[12]
  viability, T/C: 27.9%
[13]
  viability, T/C: 99.7%
[14]
  viability, T/C: 110%
[15]
  viability, T/C: 110%
[16]
  viability, T/C: 103%
[17]
  viability, T/C: 64.8%
[18]
  viability, T/C: 28.7%
[19]
  viability, T/C: 106%
[20]
  viability, T/C: 104%
[21]
  viability, T/C: 109%
[22]
  viability, T/C: 108%
[23]
  viability, T/C: 72.6%
[24]
  viability, T/C: 36.5%
[25]
  viability, T/C: 98.3%
[26]
  viability, T/C: 105%
[27]
  viability, T/C: 95.7%
[28]
  viability, T/C: 87%
[29]
  viability, T/C: 60.2%
[30]
  viability, T/C: 30.3%
[31]
  viability, T/C: 86.7%
[32]
  viability, T/C: 84%
[33]
  viability, T/C: 89.6%
[34]
  viability, T/C: 86.2%
[35]
  viability, T/C: 51.8%
[36]
  viability, T/C: 30.1%

## Cn1ncnc1[C@H]1c2n[nH]c(=O)c3cc(F)cc(c23)N[C@@H]1c1ccc(F)cc1 + Cc1[nH]c2ccc(F)cc2c1-c1nc2c3cccnc3c3ncccc3c2[nH]1
Second compound 0.0316 µM
  IC50: > 0.316 µM
Second compound 0.1 µM
  IC50: > 0.316 µM
Second compound 0.316 µM
  IC50: > 0.316 µM
Second compound 1 µM
  IC50: > 0.316 µM
Second compound 3.16 µM
  IC50: > 0.316 µM
Second compound 10 µM
  IC50: > 0.316 µM
Second compound 0.0316 µM, first compound 0.000999 µM
  viability, T/C: 115%
Second compound 0.0316 µM, first compound 0.00316 µM
  viability, T/C: 95.3%
Second compound 0.0316 µM, first compound 0.00999 µM
  viability, T/C: 101%
[1]
  viability, T/C: 87.7%
Second compound 0.0316 µM, first compound 0.0999 µM
  viability, T/C: 97.4%
[3]
  viability, T/C: 84%
Second compound 0.1 µM, first compound 0.000999 µM
  viability, T/C: 93.6%
Second compound 0.1 µM, first compound 0.00316 µM
  viability, T/C: 97.6%
Second compound 0.1 µM, first compound 0.00999 µM
  viability, T/C: 94.4%
[7]
  viability, T/C: 104%
Second compound 0.1 µM, first compound 0.0999 µM
  viability, T/C: 86.1%
[9]
  viability, T/C: 77.6%
Second compound 0.316 µM, first compound 0.000999 µM
  viability, T/C: 101%
Second compound 0.316 µM, first compound 0.00316 µM
  viability, T/C: 99.6%
Second compound 0.316 µM, first compound 0.00999 µM
  viability, T/C: 91.9%
[13]
  viability, T/C: 92.7%
Second compound 0.316 µM, first compound 0.0999 µM
  viability, T/C: 90.7%
[15]
  viability, T/C: 83.8%
Second compound 1 µM, first compound 0.000999 µM
  viability, T/C: 107%
Second compound 1 µM, first compound 0.00316 µM
  viability, T/C: 104%
Second compound 1 µM, first compound 0.00999 µM
  viability, T/C: 91.6%
[19]
  viability, T/C: 98%
Second compound 1 µM, first compound 0.0999 µM
  viability, T/C: 83.5%
[21]
  viability, T/C: 81%
Second compound 3.16 µM, first compound 0.000999 µM
  viability, T/C: 93.9%
Second compound 3.16 µM, first compound 0.00316 µM
  viability, T/C: 98.5%
Second compound 3.16 µM, first compound 0.00999 µM
  viability, T/C: 92.1%
[25]
  viability, T/C: 83%
Second compound 3.16 µM, first compound 0.0999 µM
  viability, T/C: 82.3%
[27]
  viability, T/C: 82%
Second compound 10 µM, first compound 0.000999 µM
  viability, T/C: 87.4%
Second compound 10 µM, first compound 0.00316 µM
  viability, T/C: 100%
Second compound 10 µM, first compound 0.00999 µM
  viability, T/C: 93%
[31]
  viability, T/C: 78.4%
Second compound 10 µM, first compound 0.0999 µM
  viability, T/C: 82.4%
[33]
  viability, T/C: 76.1%

## O=C(c1cc(Cc2n[nH]c(=O)c3ccccc23)ccc1F)N1CCN(C(=O)C2CC2)CC1 + Cc1[nH]c2ccc(F)cc2c1-c1nc2c3cccnc3c3ncccc3c2[nH]1
Second compound 0.0316 µM
  IC50: > 10 µM
Second compound 0.1 µM
  IC50: > 10 µM
Second compound 0.316 µM
  IC50: > 10 µM
Second compound 1 µM
  IC50: > 10 µM
Second compound 3.16 µM
  IC50: > 10 µM
Second compound 10 µM
  IC50: > 10 µM
[1]
  viability, T/C: 98.5%
[2]
  viability, T/C: 89.7%
[3]
  viability, T/C: 101%
[4]
  viability, T/C: 100%
[5]
  viability, T/C: 79.8%
[6]
  viability, T/C: 60.8%
[7]
  viability, T/C: 109%
[8]
  viability, T/C: 97.3%
[9]
  viability, T/C: 93.2%
[10]
  viability, T/C: 94.6%
[11]
  viability, T/C: 94.9%
[12]
  viability, T/C: 58.1%
[13]
  viability, T/C: 97.6%
[14]
  viability, T/C: 103%
[15]
  viability, T/C: 93%
[16]
  viability, T/C: 91.7%
[17]
  viability, T/C: 77.6%
[18]
  viability, T/C: 58.1%
[19]
  viability, T/C: 97.2%
[20]
  viability, T/C: 99.8%
[21]
  viability, T/C: 87.5%
[22]
  viability, T/C: 88%
[23]
  viability, T/C: 75.8%
[24]
  viability, T/C: 65.5%
[25]
  viability, T/C: 87.4%
[26]
  viability, T/C: 107%
[27]
  viability, T/C: 84%
[28]
  viability, T/C: 87.7%
[29]
  viability, T/C: 77.6%
[30]
  viability, T/C: 63.3%
[31]
  viability, T/C: 94.1%
[32]
  viability, T/C: 81.4%
[33]
  viability, T/C: 90.9%
[34]
  viability, T/C: 79.6%
[35]
  viability, T/C: 73.2%
[36]
  viability, T/C: 61.5%
